The values below come from patent US20130129695A1, “METHODS FOR TREATING OR INHIBITING INFECTION BY CLOSTRIDIUM DIFFICILE” (priority 2010, published 2013).

Experiment [1] concerns C. difficile strain ATCC 700057 (MMX 4381). Description: Minimum Inhibitory Concentration (MIC) assay. The experiment is classed as cell-based, Clostridium difficile. The settings on record: Clostridioides difficile, ATCC700057; C. difficile ATCC 700057 (MMX 4381); growth 18-24 hours at 37° C. As to the method:
(§1) The MIC assays are carried out in a final volume of 100 μL in 96-well clear round-bottom plates according to methods established by the Clinical Laboratory Standards Institute (CLSI). Briefly, test compound suspended in 100% DMSO (or another suitable solubilizing buffer) is added to an aliquot of media appropriate for a given pathogen to a total volume of 50 μL. This solution is serially diluted by 2-fold into successive tubes of the same media to give a range of test compound concentrations appropriate to the assay. To each dilution of test compound in media is added 50 ? L of a bacterial suspension from an overnight culture growth in media appropriate to a given pathogen. Final bacterial inoculum is approximately 10^5-10^6 CFU/well. […] Ciprofloxacin is used as an antibiotic-positive control in each screening assay. Each of the bacterial cultures that are available from the American Type Culture Collection (ATCC, www.atcc.org) is identified by its ATCC number.

In experiment [2] the test system is C. difficile strain MMX3581 (clinical). Kind of experiment: Minimum Inhibitory Concentration (MIC) assay. The experiment is classed as cell-based, Clostridium difficile. The conditions noted are these: Clostridioides difficile, growth 18-24 hours at 37° C. As to the method:
as §1

The test system of experiment [3] is CD3299 riboswitch. Kind of experiment: In-line probing assay, binding of ligands to CD3299 riboswitch. More on the design: species or system Clostridium difficile. As to the method: An in-line probing assay, as described in Regulski and Breaker, “In-line probing analysis of riboswitches”, (2008), Methods in Molecular Biology, Vol 419, pp 53-67, the contents of which are incorporated by reference, is used to estimate the dissociation binding constants for the interaction of each of the ligands described herein with a CD3299 riboswitch amplified from Clostridium difficile. Precursor mRNA leader molecules are prepared by in vitro transcription from templates generated by PCR and [5′-^32P]-labeling using methods described previously (Regulski and Breaker, In-line probing analysis of riboswitches (2008), Methods in Molecular Biology Vol 419, pp 53-67). Approximately 5 nM of labeled RNA precursor is incubated for 41 hours at 25° C. in 20 mM MgCl2, 50 mM Tris/HCl (pH 8.3 at 25° C.) in the presence or absence of a fixed concentration of each ligand. Binding to the CD3299 riboswitches are measured 100 ? M. In-line cleavage products are separated on 10% polyacrylamide gel electrophoresis (PAGE), and the resulting gel is visualized using a Molecular Dynamics Phosphorimager. […]
In-line probing exploits the natural ability of RNA to self-cleave at elevated pH and metal ion concentrations (pH≈8.3, 25 mM MgCl2) in a conformation-dependent manner. […] These ligand-dependent changes in RNA cleavage can be readily detected by denaturing gel electrophoresis. […]

Take `Cc1cc2nc3c(=O)[nH]c(=O)nc-3n(CCNCc3ccccc3)c2cc1C` [Compound 2]: the MIC in experiment [1] and in experiment [2] was no more than 64 µg/mL throughout.

Turning to `Cc1cc2nc3c(=O)[nH]c(=O)nc-3n(C[C@H](O)[C@H](O)[C@H](O)COP(=O)(O)O)c2cc1C` [FMN, Flavin mononucleotide], the “binding to the CD3299 riboswitch (in words)” value in experiment [3] is listed as “does not bind”.

For `Cc1cc2nc3c(=O)[nH]c(=O)nc-3n(CCNCc3ccc(Cl)cc3)c2cc1C` [Compound 1], the MIC in experiment [1] and in experiment [2] was no more than 64 µg/mL throughout.
